The target in assay [1] is T1, Tyrosine-protein phosphatase non-receptor type 1 (Homo sapiens) (UniProt P18031).
T1 sequence (whole entry): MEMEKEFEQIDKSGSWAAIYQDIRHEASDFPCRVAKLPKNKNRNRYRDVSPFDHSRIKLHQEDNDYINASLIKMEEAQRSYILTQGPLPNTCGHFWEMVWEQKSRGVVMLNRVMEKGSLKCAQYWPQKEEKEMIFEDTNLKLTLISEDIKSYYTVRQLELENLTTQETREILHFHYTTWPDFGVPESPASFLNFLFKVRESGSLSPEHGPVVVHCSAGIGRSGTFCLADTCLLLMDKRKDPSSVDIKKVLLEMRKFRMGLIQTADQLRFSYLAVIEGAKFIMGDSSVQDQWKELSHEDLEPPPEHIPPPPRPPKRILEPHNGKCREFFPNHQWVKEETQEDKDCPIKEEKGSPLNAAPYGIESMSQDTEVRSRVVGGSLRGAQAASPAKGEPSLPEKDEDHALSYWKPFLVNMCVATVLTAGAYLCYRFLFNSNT
Put plainly: (§1) Inhibition of PTP1B (unknown origin) using p-nitrophenylphosphate as substrate at 100 uM after 10 min.

Assay [2] deals with T2, Tyrosine-protein phosphatase non-receptor type 1 (Homo sapiens, UniProt P18031).
T2 sequence (P18031 whole entry): T1 sequence (whole entry)
The experiment in a line: Inhibition of PTP1B (unknown origin) using p-nitrophenylphosphate as substrate after 10 min.

Assay [3] has as its system Rattus norvegicus. The experiment in a line: Antidiabetic activity in albino Rattus norvegicus Sprague-Dawley (rat) streptozotocin-induced diabetic model assessed as reduction of blood glucose level at 100 mg/kg, po after 5 hr. On the set-up: scale not given: the % may be the effect or the level left. Format: functional.
The test system of assay [4] is Rattus norvegicus. Put plainly: Antidiabetic activity in albino Rattus norvegicus Sprague-Dawley (rat) streptozotocin-induced diabetic model assessed as reduction of blood glucose level at 100 mg/kg, po after 24 hr. On the set-up: scale not given: the % may be the effect or the level left. Format: functional.
Assay [5] deals with Tyrosine-protein phosphatase non-receptor type 1 (Homo sapiens) (UniProt P18031). The description is as §1. The source holds these as a separate data set.

A word on the inhibition: it is the percentage by which the read-out fell short of the control. As a reminder, the IC50 is the point on the concentration scale where inhibition reaches its midpoint. On to `COc1ccc(C2CC(c3ccc4occc4c3OC)=NO2)cc1` (stereo unspecified), for which the inhibition in assay [1] turned out to be 79.6%. The compound further gave a concentration for half-maximal inhibition (IC50) in assay [2] of 81 µM.
As a reminder, the Ki is the equilibrium dissociation constant of an inhibitor or competing ligand from its target. `COc1ccc(C2CC(c3ccc(OC)cc3OC)=NO2)cc1` (stereo unspecified): the results for the Activity in assay [3] and in assay [4] were 2.56% and 12.2%, respectively. This compound also returned an inhibition in assay [1] of 65.8%. Also, the half-inhibitory concentration (IC50) in assay [2] turned out to be 67 µM. This compound yielded a Ki in assay [2] of 48 µM.
In assay [1], `COc1ccc(C2=NOC(c3ccccc3)C2)c(O)c1` (stereo unspecified) had an inhibition of 47.1%.
Consider `COc1ccc(C2=NOC(c3ccccc3)C2)c(OC)c1` (stereo unspecified), for which the Activity in assay [3] came to 18%. This compound also returned an inhibition in assay [1] of 88.5%. Besides, in assay [4], the Activity was determined as 19.7%. Besides, in assay [2], the 50% inhibitory concentration (IC50) stood at 69 µM and the inhibition constant Ki worked out at 48 µM.
As to `COc1ccc(C2=NOC(n3ccnc3)C2)c(OC)c1` (stereo unspecified), the Activity in assay [3] was 22.3%. The same compound showed an inhibition in assay [1] of 79.8%. For the same compound, the Activity in assay [4] worked out at 15%. Further, in assay [2], the midpoint of inhibition, the IC50, lay at 88 µM and the Ki is 63 µM.
Turning to `CC(=O)Oc1ccc(C2=NOC(c3ccccc3)C2)c(OC(C)=O)c1` (stereo unspecified), the Activity in assay [3] was 23%; in assay [4], 15%. The inhibition in assay [1] is 91.6%.
In assay [1], `Oc1ccc(C2=NOC(c3ccccc3)C2)c(O)c1` (stereo unspecified) gave an inhibition of 29.5%.
Consider `COc1ccc(C2CC(c3ccc4c(c3OC)C=CC(C)(C)O4)=NO2)cc1` (stereo unspecified), for which the inhibition in assay [1] was 57.7%.
Take `COc1ccc(C2=NOC(c3ccccn3)C2)c(OC)c1` (stereo unspecified): the inhibition in assay [1] turned out to be 9.8%. In assay [2], this compound returned a half-inhibitory concentration (IC50) of 485 µM and an inhibition constant Ki of 170 µM.
Take SODIUM [sequence]: the inhibition in assay [5] worked out at 56.2%.
For `COc1c(C2=NOC(c3ccccc3)C2)ccc2c1C=CC(C)(C)O2` (stereo unspecified), the inhibition in assay [1] was 64.2%.
Consider `CN(C)C(=N)NC(=N)N` [METFORMIN], for which the results for the Activity in assay [3] and in assay [4] were 23.6% and 26.5%, respectively.
`COc1c(C2=NOC(c3ccccn3)C2)ccc2c1C=CC(C)(C)O2` (stereo unspecified) gave an inhibition in assay [1] of 62.4%.
In assay [2], SODIUM HYDROXYTRIOXIDOVANADIUM had an IC50 of 86.5 µM and an inhibition constant Ki of 67 µM.
On to `COc1ccc(C2=NOC(c3ccccc3)C2)c(OC(C)=O)c1` (stereo unspecified), for which the Activity in assay [3] amounted to 20.5%; in assay [4] it was 6.96%. The compound further showed an inhibition in assay [1] of 28.8%.
Regarding `COc1c(C2=NOC(c3ccccc3)C2)ccc2occc12` (stereo unspecified), the inhibition in assay [1] came to 80.4%. In assay [2], this compound returned an IC50 of 76 µM.
For the compound `COc1ccc(C2=NOC(c3ccncc3)C2)c(OC)c1` (stereo unspecified), the inhibition in assay [1] turned out to be 11.5%. In assay [2], inhibition was half-maximal at 275 µM (IC50) and the affinity, expressed as Ki, was 150 µM.
For `COC(=O)C1C(c2ccc(OC)cc2OC)=NOC1c1ccccc1` (stereo unspecified), the Activity in assay [3] amounted to 21.6%; in assay [4], 7.74%. For the same compound, the inhibition in assay [1] is 46.5%. In addition, in assay [2], half-maximal inhibition (IC50) required 165 µM. Further, in assay [2], the Ki turned out to be 135 µM.

The values are drawn from ChEMBL document CHEMBL3046921, “Synthesis of 3,5-disubstituted isoxazolines as protein tyrosine phosphatase 1B inhibitors” (Med Chem Res, 2008).
